These results are taken from BindingDB's records for doi:10.1016/j.bioorg.2016.07.013 (Shenyang Pharmaceutical University, 2016).

As a reminder, the IC50 is the concentration that inhibits the measured activity by half. Lower therefore signals inhibition by little substance.

In one test the target is Acetylcholinesterase (Homo sapiens, UniProt P22303). As to the kind of experiment: AChE and BuChE Inhibition Assay. As to conditions: pH 8. The method, then:
(§1) The reaction mixture was consisted of 100 µL of the total volume.

A further test concerns the target Cholinesterase (Homo sapiens, UniProt P06276). The test is described as follows: AChE and BuChE Inhibition Assay. As to conditions: pH 8. The procedure: as §1

Sequence of Cholinesterase (P06276 whole entry): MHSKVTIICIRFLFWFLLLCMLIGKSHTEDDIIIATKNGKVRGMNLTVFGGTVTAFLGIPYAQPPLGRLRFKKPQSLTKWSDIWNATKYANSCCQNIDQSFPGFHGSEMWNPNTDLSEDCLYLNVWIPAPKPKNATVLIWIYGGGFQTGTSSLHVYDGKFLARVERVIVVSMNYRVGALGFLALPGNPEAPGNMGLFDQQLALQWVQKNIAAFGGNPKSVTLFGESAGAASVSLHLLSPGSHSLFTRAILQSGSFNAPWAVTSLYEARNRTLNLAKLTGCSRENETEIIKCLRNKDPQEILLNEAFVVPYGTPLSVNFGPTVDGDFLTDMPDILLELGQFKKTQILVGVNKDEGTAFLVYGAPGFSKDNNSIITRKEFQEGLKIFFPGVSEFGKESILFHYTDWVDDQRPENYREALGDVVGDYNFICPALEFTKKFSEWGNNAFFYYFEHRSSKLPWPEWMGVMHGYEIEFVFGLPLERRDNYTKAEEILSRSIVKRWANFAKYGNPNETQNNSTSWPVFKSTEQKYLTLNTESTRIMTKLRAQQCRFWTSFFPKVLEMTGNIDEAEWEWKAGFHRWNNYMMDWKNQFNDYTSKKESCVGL
Sequence of Acetylcholinesterase (P22303 whole entry): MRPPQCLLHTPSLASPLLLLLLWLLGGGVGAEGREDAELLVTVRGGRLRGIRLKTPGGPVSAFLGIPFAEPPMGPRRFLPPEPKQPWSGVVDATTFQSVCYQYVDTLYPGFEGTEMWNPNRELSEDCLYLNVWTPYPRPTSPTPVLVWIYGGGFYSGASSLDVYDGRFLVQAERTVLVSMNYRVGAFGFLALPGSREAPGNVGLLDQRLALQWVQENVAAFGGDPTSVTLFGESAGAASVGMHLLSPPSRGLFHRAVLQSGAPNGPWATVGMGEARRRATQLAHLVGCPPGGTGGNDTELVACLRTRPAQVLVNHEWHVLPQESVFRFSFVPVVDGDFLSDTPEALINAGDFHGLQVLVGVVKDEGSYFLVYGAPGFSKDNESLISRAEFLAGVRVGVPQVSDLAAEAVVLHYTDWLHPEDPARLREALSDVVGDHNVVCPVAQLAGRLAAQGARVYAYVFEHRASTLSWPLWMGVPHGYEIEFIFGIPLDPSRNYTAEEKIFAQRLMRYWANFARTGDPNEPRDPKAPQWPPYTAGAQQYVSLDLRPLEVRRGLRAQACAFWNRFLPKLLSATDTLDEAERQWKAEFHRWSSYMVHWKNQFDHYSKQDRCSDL

On to `CCN1CCN(Cc2ccc(NC(=O)c3cc4cccc(OC)c4oc3=O)cc2Cl)CC1` [N-(3-chloro-4-((4-ethylpiperazin-1-yl)methyl)phenyl)-8-methoxy-2-oxo-2H-chromene-3-carboxamide (9a)], for which the IC50 at Acetylcholinesterase stood at 195 nM.

For the molecule `COc1cccc2cc(C(=O)Nc3ccc(CN4CCN(C)CC4)c(Cl)c3)c(=O)oc12` [N-(3-chloro-4-((4-methylpiperazin-1-yl)methyl)phenyl)-8-methoxy-2-oxo-2H-chromene-3-carboxamide (9b)], the IC50 turned out to be 1220 nM against Acetylcholinesterase and 1770 nM on Cholinesterase.

`CN1CCN(Cc2ccc(NC(=O)c3cc4cc(Br)ccc4oc3=O)cc2Cl)CC1` [6-Bromo-N-(3-chloro-4-((4-methylpiperazin-1-yl)methyl)phenyl)-2-oxo-2H-chromene-3-carboxamide (9u)]: the IC50 on Acetylcholinesterase amounted to 330 nM; at Cholinesterase it was 1890 nM.

Take `CN1CCN(Cc2ccc(NC(=O)c3cc4cc(Cl)ccc4oc3=O)cc2Cl)CC1` [6-Chloro-N-(3-chloro-4-((4-methylpiperazin-1-yl)methyl)phenyl)-2-oxo-2H-chromene-3-carboxamide (9q)]: the IC50 was found to be 841 nM against Acetylcholinesterase and 1790 nM against Cholinesterase.

`CCN1CCN(Cc2ccc(NC(=O)c3cc4cc(Br)ccc4oc3=O)cc2Cl)CC1` [6-Bromo-N-(3-chloro-4-((4-ethylpiperazin-1-yl)methyl)phenyl)-2-oxo-2H-chromene-3-carboxamide (9t)] came in with an IC50 against Acetylcholinesterase of 120 nM.

Turning to `COc1ccc2cc(C(=O)Nc3ccc(CN4CCN(C)CC4)c(C(F)(F)F)c3)c(=O)oc2c1` [7-Methoxy-N-(4-((4-methylpiperazin-1-yl)methyl)-3-(trifluoromethyl)phenyl)-2-oxo-2H-chromene-3-carboxamide (9j)], at Acetylcholinesterase, it took 591 nM to reach half-maximal inhibition (IC50).

As to `COc1ccc2cc(C(=O)Nc3ccc(CN4CCN(C)CC4)c(Cl)c3)c(=O)oc2c1` [N-(3-chloro-4-((4-methylpiperazin-1-yl)methyl)phenyl)-7-methoxy-2-oxo-2H-chromene-3-carboxamide (9g)], the figures for the IC50 against Acetylcholinesterase and at Cholinesterase were 1540 nM and 1680 nM, respectively.

With `CCN1CCN(Cc2ccc(NC(=O)c3cc4cc(Cl)ccc4oc3=O)cc2Cl)CC1` [6-Chloro-N-(3-chloro-4-((4-ethylpiperazin-1-yl)methyl)phenyl)-2-oxo-2H-chromene-3-carboxamide (9p)], the IC50 against Acetylcholinesterase amounted to 222 nM.

`CCN1CCN(Cc2ccc(NC(=O)c3cc4cc([N+](=O)[O-])ccc4oc3=O)cc2Cl)CC1` [N-(3-chloro-4-((4-ethylpiperazin-1-yl)methyl)phenyl)-6-nitro-2-oxo-2H-chromene-3-carboxamide (9x)] gave an IC50 at Acetylcholinesterase of 34 nM.

`CN1CCN(Cc2ccc(NC(=O)c3cc4ccccc4oc3=O)cc2C(F)(F)F)CC1` [N-(4-((4-methylpiperazin-1-yl)methyl)-3-(trifluoromethyl)phenyl)-2-oxo-2H-chromene-3-carboxamide (9o)] gave an IC50 against Acetylcholinesterase of 618 nM.

Turning to `COc1cccc2cc(C(=O)Nc3ccc(CN4CCN(C)CC4)c(C(F)(F)F)c3)c(=O)oc12` [8-Methoxy-N-(4-((4-methylpiperazin-1-yl)methyl)-3-(trifluoromethyl)phenyl)-2-oxo-2H-chromene-3-carboxamide (9d)], it took 1450 nM to reach half-maximal inhibition against Acetylcholinesterase (IC50).

As to `CN1CCN(Cc2ccc(NC(=O)c3cc4cc([N+](=O)[O-])ccc4oc3=O)cc2Cl)CC1` [N-(3-chloro-4-((4-methylpiperazin-1-yl)methyl)phenyl)-6-nitro-2-oxo-2H-chromene-3-carboxamide (9y)], the figures for the IC50 on Acetylcholinesterase and against Cholinesterase were 807 nM and 1880 nM, respectively.

On Acetylcholinesterase, `CCN1CCN(Cc2ccc(NC(=O)c3cc4ccc(OC)cc4oc3=O)cc2Cl)CC1` [N-(3-chloro-4-((4-ethylpiperazin-1-yl)methyl)phenyl)-7-methoxy-2-oxo-2H-chromene-3-carboxamide (9f)] had an IC50 of 122 nM.

As to `CCN1CCN(Cc2ccc(NC(=O)c3cc4ccccc4oc3=O)cc2Cl)CC1` [N-(3-chloro-4-((4-ethylpiperazin-1-yl)methyl)phenyl)-2-oxo-2H-chromene-3-carboxamide (9l)], the IC50 worked out at 1300 nM against Acetylcholinesterase and 1590 nM at Cholinesterase.

With `CN1CCN(Cc2ccc(NC(=O)c3cc4ccccc4oc3=O)cc2Cl)CC1` [N-(3-chloro-4-((4-methylpiperazin-1-yl)methyl)phenyl)-2-oxo-2H-chromene-3-carboxamide (9k)], the IC50 against Acetylcholinesterase is 1300 nM; at Cholinesterase it was 1970 nM.
